Assays:
[1] = xn = mol fraction of the nth substance listed; settings: 101 kPa, Liquid
[2] = refractive index (Na D-line) (dimensionless); xn = mol fraction of the nth substance listed; settings: 101 kPa, Liquid

CCCCN(CCCC)CCCC [tributylamine] + c1ccccc1
Settings | mass density, [1] [kg/m3] | refractive index, [2]
278.15 K, x2 = 0.0702 | 790.1 | 1.4425
278.15 K, x2 = 0.1162 | 791.1 | 1.4495
278.15 K, x2 = 0.1687 | 792.5 | 1.4566
278.15 K, x2 = 0.2383 | 794.9 | 1.4636
278.15 K, x2 = 0.3091 | 797.7 | 1.4707
278.15 K, x2 = 0.4032 | 802.2 | 1.4779
278.15 K, x2 = 0.5043 | 808.5 | 1.485
278.15 K, x2 = 0.6492 | 821.3 | 1.4922
278.15 K, x2 = 0.8251 | 846.8 | 1.4994
283.15 K, x2 = 0.0702 | 786.7 | 1.4414
283.15 K, x2 = 0.1162 | 787.8 | 1.4485
283.15 K, x2 = 0.1687 | 789.3 | 1.4557
283.15 K, x2 = 0.2383 | 791.8 | 1.4628
283.15 K, x2 = 0.3091 | 794.6 | 1.47
283.15 K, x2 = 0.4032 | 799.2 | 1.4771
283.15 K, x2 = 0.5043 | 805.6 | 1.4842
283.15 K, x2 = 0.6492 | 818.5 | 1.4914
283.15 K, x2 = 0.8251 | 844.1 | 1.4985
288.15 K, x2 = 0.0702 | 783.2 | 1.4406
288.15 K, x2 = 0.1162 | 784.4 | 1.448
288.15 K, x2 = 0.1687 | 786 | 1.4551
288.15 K, x2 = 0.2383 | 788.5 | 1.4621
288.15 K, x2 = 0.3091 | 791.3 | 1.4692
288.15 K, x2 = 0.4032 | 795.9 | 1.4763
288.15 K, x2 = 0.5043 | 802.3 | 1.4834
288.15 K, x2 = 0.6492 | 815.2 | 1.4905
288.15 K, x2 = 0.8251 | 840.8 | 1.4976
293.15 K, x2 = 0.0702 | 779.9 | 1.4394
293.15 K, x2 = 0.1162 | 781.1 | 1.4466
293.15 K, x2 = 0.1687 | 782.7 | 1.4538
293.15 K, x2 = 0.2383 | 785.3 | 1.4609
293.15 K, x2 = 0.3091 | 788.1 | 1.4681
293.15 K, x2 = 0.4032 | 792.7 | 1.4752
293.15 K, x2 = 0.5043 | 799 | 1.4824
293.15 K, x2 = 0.6492 | 811.8 | 1.4896
293.15 K, x2 = 0.8251 | 837.1 | 1.4967
298.15 K, x2 = 0 | 774.3 | –
298.15 K, x2 = 0.0702 | 775.6 | 1.4385
298.15 K, x2 = 0.1162 | 776.9 | 1.4456
298.15 K, x2 = 0.1687 | 778.5 | 1.4527
298.15 K, x2 = 0.2383 | 781 | 1.4602
298.15 K, x2 = 0.3091 | 783.8 | 1.4671
298.15 K, x2 = 0.4032 | 788.3 | 1.4742
298.15 K, x2 = 0.5043 | 794.5 | 1.4816
298.15 K, x2 = 0.6492 | 807 | 1.4881
298.15 K, x2 = 0.8251 | 831.6 | 1.4951
303.15 K, x2 = 0 | 770.8 | –
303.15 K, x2 = 0.0702 | 772.5 | 1.4383
303.15 K, x2 = 0.1162 | 773.8 | 1.4454
303.15 K, x2 = 0.1687 | 775.4 | 1.4524
303.15 K, x2 = 0.2383 | 777.9 | 1.46
303.15 K, x2 = 0.3091 | 780.8 | 1.4667
303.15 K, x2 = 0.4032 | 785.4 | 1.474
303.15 K, x2 = 0.5043 | 791.6 | 1.4812
303.15 K, x2 = 0.6492 | 804.3 | 1.4876
303.15 K, x2 = 0.8251 | 829 | 1.4946
308.15 K, x2 = 0 | 767.2 | –
308.15 K, x2 = 0.0702 | 769.1 | 1.4374
308.15 K, x2 = 0.1162 | 770.4 | 1.4443
308.15 K, x2 = 0.1687 | 771.9 | 1.4514
308.15 K, x2 = 0.2383 | 774.4 | 1.4589
308.15 K, x2 = 0.3091 | 777.3 | 1.4658
308.15 K, x2 = 0.4032 | 781.9 | 1.4733
308.15 K, x2 = 0.5043 | 788.1 | 1.4803
308.15 K, x2 = 0.6492 | 800.6 | 1.4868
308.15 K, x2 = 0.8251 | 824.9 | 1.4936
313.15 K, x2 = 0 | 763.6 | –
313.15 K, x2 = 0.0702 | 765.5 | 1.4366
313.15 K, x2 = 0.1162 | 766.8 | 1.4438
313.15 K, x2 = 0.1687 | 768.4 | 1.4508
313.15 K, x2 = 0.2383 | 770.9 | 1.4581
313.15 K, x2 = 0.3091 | 773.8 | 1.465
313.15 K, x2 = 0.4032 | 778.4 | 1.4726
313.15 K, x2 = 0.5043 | 784.5 | 1.4795
313.15 K, x2 = 0.6492 | 797 | 1.486
313.15 K, x2 = 0.8251 | 821.1 | 1.4928
318.15 K, x2 = 0 | 759.8 | –
318.15 K, x2 = 0.0702 | 761.8 | 1.4358
318.15 K, x2 = 0.1162 | 763.1 | 1.4431
318.15 K, x2 = 0.1687 | 764.8 | 1.45
318.15 K, x2 = 0.2383 | 767.2 | 1.4575
318.15 K, x2 = 0.3091 | 770.1 | 1.4643
318.15 K, x2 = 0.4032 | 774.7 | 1.4718
318.15 K, x2 = 0.5043 | 780.8 | 1.4788
318.15 K, x2 = 0.6492 | 793.3 | 1.4853
318.15 K, x2 = 0.8251 | 817.2 | 1.492

CCN(CC)CC [triethylamine] + c1ccccc1
Settings | mass density, [1] [kg/m3] | refractive index, [2]
278.15 K, x2 = 0.1145 | 751.3 | 1.4149
278.15 K, x2 = 0.2043 | 759.4 | 1.4197
278.15 K, x2 = 0.3005 | 769.2 | 1.4261
278.15 K, x2 = 0.4005 | 780.6 | 1.4336
278.15 K, x2 = 0.5023 | 793.6 | 1.4421
278.15 K, x2 = 0.6037 | 808.1 | 1.4518
278.15 K, x2 = 0.7035 | 824.2 | 1.4625
278.15 K, x2 = 0.8079 | 843.9 | 1.4756
278.15 K, x2 = 0.9069 | 866.2 | 1.4902
283.15 K, x2 = 0.1145 | 747.4 | 1.4133
283.15 K, x2 = 0.2043 | 755.5 | 1.418
283.15 K, x2 = 0.3005 | 765.4 | 1.4243
283.15 K, x2 = 0.4005 | 776.9 | 1.4318
283.15 K, x2 = 0.5023 | 790 | 1.4404
283.15 K, x2 = 0.6037 | 804.6 | 1.4501
283.15 K, x2 = 0.7035 | 821 | 1.4609
283.15 K, x2 = 0.8079 | 841 | 1.474
283.15 K, x2 = 0.9069 | 863.5 | 1.4886
288.15 K, x2 = 0.1145 | 743.3 | 1.4113
288.15 K, x2 = 0.2043 | 751.5 | 1.416
288.15 K, x2 = 0.3005 | 761.4 | 1.4224
288.15 K, x2 = 0.4005 | 772.9 | 1.43
288.15 K, x2 = 0.5023 | 786 | 1.4387
288.15 K, x2 = 0.6037 | 800.7 | 1.4485
288.15 K, x2 = 0.7035 | 817.2 | 1.4594
288.15 K, x2 = 0.8079 | 837.4 | 1.4727
288.15 K, x2 = 0.9069 | 859.9 | 1.4872
293.15 K, x2 = 0.1145 | 738.4 | 1.409
293.15 K, x2 = 0.2043 | 746.8 | 1.4137
293.15 K, x2 = 0.3005 | 756.7 | 1.4201
293.15 K, x2 = 0.4005 | 768.2 | 1.4278
293.15 K, x2 = 0.5023 | 781.4 | 1.4366
293.15 K, x2 = 0.6037 | 796.1 | 1.4465
293.15 K, x2 = 0.7035 | 812.7 | 1.4576
293.15 K, x2 = 0.8079 | 833.1 | 1.471
293.15 K, x2 = 0.9069 | 855.6 | 1.4856
298.15 K, x2 = 0 | 723.4 | –
298.15 K, x2 = 0.1145 | 733.4 | 1.4062
298.15 K, x2 = 0.2043 | 741.8 | 1.411
298.15 K, x2 = 0.3005 | 751.7 | 1.4173
298.15 K, x2 = 0.4005 | 763.1 | 1.425
298.15 K, x2 = 0.5023 | 776.1 | 1.4338
298.15 K, x2 = 0.6037 | 790.7 | 1.4438
298.15 K, x2 = 0.7035 | 807.2 | 1.4549
298.15 K, x2 = 0.8079 | 827.4 | 1.4683
298.15 K, x2 = 0.9069 | 849.6 | 1.4829
303.15 K, x2 = 0 | 717.9 | –
303.15 K, x2 = 0.1145 | 728.2 | 1.4038
303.15 K, x2 = 0.2043 | 737 | 1.4088
303.15 K, x2 = 0.3005 | 747.1 | 1.4151
303.15 K, x2 = 0.4005 | 758.7 | 1.4228
303.15 K, x2 = 0.5023 | 772 | 1.4317
303.15 K, x2 = 0.6037 | 786.8 | 1.4418
303.15 K, x2 = 0.7035 | 803.6 | 1.4531
303.15 K, x2 = 0.8079 | 824.2 | 1.4666
303.15 K, x2 = 0.9069 | 846.8 | 1.4812
308.15 K, x2 = 0 | 712.9 | –
308.15 K, x2 = 0.1145 | 723.4 | 1.4009
308.15 K, x2 = 0.2043 | 732.3 | 1.4061
308.15 K, x2 = 0.3005 | 742.4 | 1.4125
308.15 K, x2 = 0.4005 | 754 | 1.4203
308.15 K, x2 = 0.5023 | 767.3 | 1.4293
308.15 K, x2 = 0.6037 | 782.1 | 1.4395
308.15 K, x2 = 0.7035 | 799 | 1.451
308.15 K, x2 = 0.8079 | 819.6 | 1.4647
308.15 K, x2 = 0.9069 | 842.1 | 1.4795
313.15 K, x2 = 0 | 708.3 | –
313.15 K, x2 = 0.1145 | 718.9 | 1.3988
313.15 K, x2 = 0.2043 | 727.9 | 1.4043
313.15 K, x2 = 0.3005 | 738.1 | 1.4107
313.15 K, x2 = 0.4005 | 749.7 | 1.4185
313.15 K, x2 = 0.5023 | 762.9 | 1.4275
313.15 K, x2 = 0.6037 | 777.8 | 1.4378
313.15 K, x2 = 0.7035 | 794.7 | 1.4495
313.15 K, x2 = 0.8079 | 815.4 | 1.4632
313.15 K, x2 = 0.9069 | 837.8 | 1.4779
318.15 K, x2 = 0 | 701.6 | –
318.15 K, x2 = 0.1145 | 712.6 | 1.3961
318.15 K, x2 = 0.2043 | 721.7 | 1.4017
318.15 K, x2 = 0.3005 | 732.1 | 1.4082
318.15 K, x2 = 0.4005 | 743.9 | 1.4161
318.15 K, x2 = 0.5023 | 757.2 | 1.4252
318.15 K, x2 = 0.6037 | 772.3 | 1.4356
318.15 K, x2 = 0.7035 | 789.5 | 1.4474
318.15 K, x2 = 0.8079 | 810.5 | 1.4613
318.15 K, x2 = 0.9069 | 833.1 | 1.4759

Reference: the NIST ThermoML archive (doi:10.1007/s10765-006-0095-5)
